The values below come from US20240315993A1, “ANTIPARASITIC COMPOUNDS” (Intervet Inc., priority 2021, published 2024).

The subject of test [1] is Lepeophtheirus salmonis. Description: Salmon - in vivo efficacy against sea lice using gavage administration. The following applies: 5 mg/kg once by gavage. As to the method:
Salmon (Salmo solar) were treated once orally by gavage at a dose of 5 mg/kg bodyweight per fish (Day 0). As formulation DMSO 5%/fish oil 95% was used. Salmon of the negative control group received only the excipients of the formulation.
The fish were infested with Lepeophtheirus salmonis copepodids twice before treatment (i.e., around day −28 and day −3) and once after treatment (i.e., day 17).
Around day 28 (end of animal phase), fish were euthanized, and lice on each fish were classified ((pre-)adult or juvenile stage) and counted. […] Efficacy is expressed as a % reduction of sea lice in treated groups versus a control group, using the Abbott's formula.

Test [2] has as its system Copepodids (juvenile sea lice stage of Lepeophtheirus salmonis). Briefly: Juvenile sea lice contact assay. The following applies: ~24 h. As to the method: Copepodids (juvenile sea lice stage of Lepeophtheirus salmonis) were exposed to seawater spiked with declining concentrations of a test compound (dissolved in a DMSO sea-water mixture). Sea lice inhibition (% of dead+damaged copepodids) was assessed after approximately 24 hours of continuous exposure. The vitality of used parasites was confirmed in a negative (solvent) control group.

The subject of test [3] is juvenile soft ticks (Ornithodoros moubata). Description: Guinea pig - efficacy against argaside tick. It counts as in vivo. The following applies: for duration of efficacy, subcutaneous compared with oral administration: 5 mg/kg, ticks and bed bugs. As to the method: (§1) Guinea pigs were locally co-infested (using an infestation device on a shaved skin area) with juvenile soft ticks (Ornithodoros moubata) and bed bugs (Cimex lectularius) before the treatment day (Day 0) to provide a baseline-negative control value. Guinea pigs were treated orally (by gavage) or subcutaneously at a dose of 5 mg/kg bodyweight of a test compound in a formulation of 10% DMF/Emulsifier+90% Aqua ad injectabilia.
(§2) Repeated local infestations with both parasites were performed at different time points after treatment. Within approximately 45 min after each infestation ten engorged ticks and ten engorged bed bugs were • collected and the percentage of dead and damaged parasites per species were • assessed approximately 24 hours following collection. The efficacy was • calculated as % of inhibition ‘killed+damaged’ parasites in a treated group in comparison to the baseline-negative control (using a modified Schneider Orelli's formula).
(§3) Results: Activity of the test compounds at different evaluation time-points (≥80% inhibition were found active): […]

Test [4] deals with bed bugs (Cimex lectularius). Description: Guinea pig - efficacy against bed bug. It is filed as in vivo. As to the method:
as §1, §2, §3

Test [5] deals with Mobile stages of sea lice (pre-adults, adults of Lepeophtheirus salmonis). Briefly: Adult sea lice contact assay. The settings on record: pre-adults/adults, assessed after ~1 and 24 h, read-out: EC50 (sea lice inhibition, dead+damaged). The procedure: Mobile stages of sea lice (i.e., pre-adults, adults of Lepeophtheirus salmonis) were exposed to seawater spiked with declining concentrations of a test compound (dissolved in a PEG sea-water mixture). Sea lice inhibition (% of dead+damaged sea lice) was assessed after approximately 1 and 24 hours of continuous exposure in comparison to a negative (solvent) control group.

For test [6], the system named is Dermacenter variabilis. Description: Cattle - efficacy against multi-host ticks (Dermacenter variabilis). It counts as in vivo. The procedure:
(§4) Cattle were treated subcutaneously or topically (pour-on) at a dose of 5 mg/kg bodyweight of a test compound (Day 0). As subcutaneous formulation NMP 60%/PEG300 40% was used, and as pour-on formulation DMA 92%/DEET 8% was used. Cattle of the negative control group received only the formulation excipients of both formulations (SC, pour-on).
(§5) Cattle were locally infested with 30 to 40 unfed adult ticks each of Rhipicephalus appendiculatus and Dermacenter variabilis (for both species sex ratio 1:1), by placing the ticks in an ear sleeve (R. appendiculatus) or a stockinet patch attached to the body side (D. variabilis) once before treatment, and at different time points after treatment. Free (i.e., non-attached ticks) were removed from ear sleeves/stockinet patches two days after each infestation and were excluded from the efficacy calculation.
(§6) Compounds with efficacy ≥80 percent were found active.

Test [7] relates to Rhipicephalus appendiculatus. Briefly: Cattle - efficacy against multi-host ticks (Rhipicephalus appendiculatus). It counts as in vivo. As to the method: as §4, §5, §6
Test [8] relates to Rhipicephalus microplus. Briefly: Cattle - efficacy against one-host tick. It is filed as in vivo. The settings on record: 1 mg/kg topical (Compound 4: spray solution; others: DMA 92%/DEET 8% pour-on). As to the method:
Cattle were infested (whole body) with up to 3000 Rhipicephalus microplus larvae two or three times per week before and after the treatment day (Day 0). Cattle of treatment groups were treated subcutaneously or topically (spray or pour-on) at a dose of 1 mg/kg bodyweight of a test compound. As subcutaneous formulation either 2-pyrrolidon 50%/Tween 80 50% or NMP 60%/PEG300 40% was used. As topical formulation either a spray solution (DMF/Emulsifier 2%/tap water 98%) (Compound 4) or a DMA 92%/DEET 8% pour-on solution (all other compounds) or a pour-on solution containing Imwitor 988 (20%)+Miglyol 840 (QS) (Compound 453 and Compound 466) or a pour-on solution containing Miglyol 840 (QS) (Compound 453) was used. Cattle of the negative control group received only the formulation excipients of the respective administration route.
Fully engorged female ticks dropping from cattle were collected daily after treatment and counted in treatment and control groups. Efficacy was expressed using the standard ADEQ analysis method (ADEQ calculation in accordance with WAAVP guidelines for evaluating the efficacy of acaricides against ticks on ruminants; Veterinary parasitology 136 (2006) 29-43). Compounds with efficacy ≥80 percent were found active/effective. Onset of efficacy means the first Day with efficacy ≥80 percent. Duration of efficacy means the last Day with efficacy ≥80 percent.

Where [9] appears, read: 5 mg/kg subcutaneous, after 7 days.
Setting [10] is: 5 mg/kg subcutaneous, after 10 days.
Where [11] appears, read: 5 mg/kg subcutaneous, therapeutic, Day 2.
The mark [12] stands for this setting: 5 mg/kg topical pour-on, re-infested after 7 days.
The mark [13] stands for this setting: 5 mg/kg topical pour-on, re-infested after 28 days.
Where [14] appears, read: 5 mg/kg topical pour-on, therapeutic, Day 2.
[15] abbreviates: 5 mg/kg, both administration routes (topical, subcutaneous).

SMILES strings stand for the structures.

As for `O=C(Nc1ncc(F)cc1F)c1cc(NC(=O)C2C(c3cc(Cl)cc(Cl)c3)C2(Cl)Cl)ccc1F` (centres unmarked) [Compound 463], the “therapeutic efficacy against juvenile sea lice (% reduction vs control)” value in test [1] (day -3 infestation, counted around day 28) is given as 100%. In test [1] (day -28 infestation, counted day 7), the “therapeutic efficacy against (pre-)adult sea lice (% reduction vs control)” value stood at 100%. The “Sea lice inhibition (% of dead+damaged copepodids)” value in test [2] (1 nM in seawater) is 100%.
As usually defined, the inhibition is the change of the read-out against control, counted positive when it falls. The EC50 is the concentration at which the effect is half-maximal. Consider `Cc1cc(NC(=O)c2cc(NC(=O)[C@H]3[C@H](c4cc(Cl)cc(Cl)c4)C3(Cl)Cl)ccc2Cl)ncc1F` [Compound 454], for which the “activity against tick nymphs (≥80% inhibition, killed+damaged)” value was “immediate activity” in test [3] (5 mg/kg oral, Day 0); “immediate activity” in test [3] (5 mg/kg subcutaneous, Day 0); “activity” in test [3] (setting [9]); “activity” in test [3] (setting [10]). The “duration of efficacy, subcutaneous compared with oral administration” value in test [3] is on record as “longer duration of efficacy”. The inhibition at 0.1 µM in test [2] (Lepeophtheirus salmonis, 100 nM in seawater, read-out: Sea lice inhibition (% of dead+damaged copepodids)) amounted to 100%. Moreover, the “activity against bed bugs (≥80% inhibition, killed+damaged)” value in test [4] (5 mg/kg oral, Day 0) is “immediate activity”; in test [4] (5 mg/kg subcutaneous, Day 0), “immediate activity”. In addition, the EC50 in test [5] is not above 10 nM.
With `O=C(Nc1ccc(F)cc1F)c1cc(NC(=O)[C@H]2[C@H](c3cc(Cl)cc(Cl)c3)C2(Cl)Cl)ccc1F` [Compound 447], the “efficacy ≥80 percent against Dermacenter variabilis” value in test [6] (5 mg/kg subcutaneous, re-infested after 7 days) is “prophylactic efficacy”; in test [6] (5 mg/kg subcutaneous, re-infested after 28 days), “prophylactic efficacy”; in test [6] (setting [11]) it was “therapeutic efficacy”; in test [6] (setting [12]), “prophylactic efficacy”; in test [6] (setting [13]), “prophylactic efficacy”; in test [6] (setting [14]), “therapeutic efficacy”. In addition, the “effective in treating existing tick infestations” value in test [6] (setting [15]) and in test [7] (setting [15]) was 100% throughout. Further, the “activity against tick nymphs (≥80% inhibition, killed+damaged)” value in test [3] (5 mg/kg oral, Day 0) is reported as “immediate activity”; in test [3] (5 mg/kg oral, after 7 days) it was “activity”; in test [3] (5 mg/kg subcutaneous, Day 0), “immediate activity”; in test [3] (setting [9]), “activity”; in test [3] (setting [10]), “activity”; in test [3] (5 mg/kg subcutaneous, after 14 days) it was “activity”. Also, the “activity against tick nymphs (≥80% inhibition, killed+damaged)” value in test [3] (5 mg/kg subcutaneous, after 17 days) is on record as “activity”. Moreover, the “duration of efficacy, subcutaneous compared with oral administration” value in test [3] is listed as “longer duration of efficacy”. For the same compound, the inhibition at 0.01 µM in test [2] (Lepeophtheirus salmonis, 10 nM in seawater, read-out: Sea lice inhibition (% of dead+damaged copepodids)) was 100%. The “activity against bed bugs (≥80% inhibition, killed+damaged)” value in test [4] (5 mg/kg oral, Day 0) was “immediate activity”; in test [4] (5 mg/kg oral, after 7 days), “activity”; in test [4] (5 mg/kg subcutaneous, Day 0), “immediate activity”; in test [4] (setting [9]), “activity”; in test [4] (setting [10]) it was “activity”. Further, in test [5], the EC50 was not above 10 nM. Moreover, the “efficacy ≥80 percent against Rhipicephalus appendiculatus” value in test [7] (5 mg/kg subcutaneous, re-infested after 21 days) is given as “prophylactic efficacy”; in test [7] (setting [11]), “therapeutic efficacy”; in test [7] (setting [12]) it was “prophylactic efficacy”; in test [7] (5 mg/kg topical pour-on, re-infested after 14 days), “prophylactic efficacy”; in test [7] (setting [13]), “prophylactic efficacy”; in test [7] (5 mg/kg topical pour-on, re-infested after 35 days), “prophylactic efficacy”. Further, the “efficacy ≥80 percent against Rhipicephalus appendiculatus” value in test [7] (setting [14]) is listed as “therapeutic efficacy”. Also, the “duration of efficacy (last Day with efficacy ≥80 percent)” value in test [8] was not below 57 days. In addition, in test [8], the “onset of efficacy (first Day with efficacy ≥80 percent)” value was 4 days.
